Experimental data from PMC12786457, “Studies on the Complexation of Platinum(II) by Some 4-Nitroisothiazoles and the Cytotoxic Activity of the Resulting Complexes” (Molecules, 2025).

Experiment: Reactivity with L-glutathione (GSH), UV photometry at 260 nm
Format: in vitro ADME
Settings: for Half-time, t1/2 of reaction with GSH: 2 mM GSH, 10 mmol/L NaCl, 10 mmol/L Tris x HCl pH 7.4, 37 °C, UV 260 nm
Description: Deactivation of platinum anticancer drugs occurs in the organism at both systemic and intracellular levels. After intravenous administration, these drugs undergo a series of metabolic processes, and the concentration of their active forms can be reduced by various mechanisms. At the systemic level, the first step in deactivation is plasma protein binding: Platinum drugs rapidly bind to plasma proteins (over 90%), especially albumin [32]. […] At the cellular level, platinum drugs are neutralized by binding to intracellular proteins and peptides such as glutathione and metallothionein [33]. Binding to peptide and protein thiol and thioether moieties, which are the primary binding sites for such reactions, prevents the drug from reaching DNA and may be responsible for its nephrotoxicity. As in previous studies, we assessed the susceptibility of the tested compounds to this type of inactivation in the cancer tissues by measuring the half-life of the compound in an aqueous solution containing a physiological concentration of the reduced form of glutathione (GSH) using UV photometry at a wavelength of 260 nm similarly as in Hagrman et al.. Using the same methodology allowed us to directly compare the GHS reactivity of nitroisothiazole compounds with their pyrazole and isoxazole analogues. As a control, the UV spectra of complexes C1 and C2 in dioxane were recorded to check whether there was excessive absorption at a wavelength of 260 nm, which could interfere with the measurement of the reaction of the complexes with glutathione (visualization of the UV spectra can be found in the Supplementary Materials, Figures S46 and S47).
The experiment was conducted in a similar manner to that described in previous publications. First, 30 μL of 60 mM solution of the appropriate complex (cis C1, trans C2, trans C3 and trans C4) in purified and anhydrous distilled dioxane was mixed with 3 mL of a 2 mM solution of reduced L-glutathione (GSH) in an argon-saturated medium containing 10 mmol/L NaCl and 10 mmol/L Tris x HCl buffer, pH 7.4, to achieve a final concentration of 6 µM of the tested complexes. The measurement was carried out at 37 °C. The progress of the reaction was monitored by UV absorption spectrometry at a wavelength of 260 nm. Dioxane was used to dissolve the tested Pt complexes due to the lack of UV absorption of this solvent at the used wavelength. The GSH solution was saturated with argon to remove oxygen and thus prevent oxidation of GSH with the formation of S-S bonds, which would interfere with the measurement results.

| Compound | Half-time, t1/2 of reaction with GSH | reaction with GSH, times faster than oxaliplatin (from half-times of Table 5) | Half-time, t1/2 of reaction with GSH (listed as trans-complex C3) [min] | reaction with GSH, times faster than transplatin (from half-times of Table 5) [times] | Half-time, t1/2 of reaction with GSH (listed as cis-complex C1) [min] | reaction with GSH, times faster than cisplatin (from half-times of Table 5) |
| --- | --- | --- | --- | --- | --- | --- |
| Cc1nscc1[N+](=O)[O-].Cc1nscc1[N+](=O)[O-].[Cl][Pt][Cl] [C2, trans-Dichlorobis(3-methyl-4-nitroisothiazole)platinum(II)] | ~29 min | about 1.5 times |  |  |  |  |
| COC(=O)c1snc(C)c1[N+](=O)[O-].Cc1nscc1[N+](=O)[O-].[Cl][Pt][Cl] [C3, trans-Dichloro-3-methyl-4-nitroisothiazole 3-Methyl-4-nitro-5-(methoxycarbonyl)isothiazole Platinum(II)] | about 20 s |  | 0.333 | 12 |  |  |
| COC(=O)c1snc(C)c1[N+](=O)[O-].COC(=O)c1snc(C)c1[N+](=O)[O-].[Cl][Pt][Cl] [C4, trans-Dichlorobis(3-methyl-4-nitro-5-(methoxycarbonyl)isothiazole)platinum(II)] | ~0.167 min |  |  | 24 |  |  |
| Dichlorobis(3-methyl-4-nitroisothiazole)platinum(II) [C1] | about 16 min |  |  |  | 16 | approximately three |
